# Test system: SARS-COV-2
# Assay: SARS-COV-2 Cytopathic Effect (CPE) reduction assay in Vero E6 cells
# Format: cell-based
# Conditions: Severe acute respiratory syndrome coronavirus 2, Vero C1008, 72 h
smiles,measurement,value
"CCC(CC)COC(=O)[C@H](C)N[P@](=O)(OC[C@H]1O[C@@](C#N)(c2ccc3c(N)ncnn23)[C@H](O)[C@@H]1O)Oc1ccccc1 [Remdesivir, reference compound]",EC50,4.5 µM
